“Also recorded” adds a separate entry of the source. One block for each molecule: values may come before it.
Legend:
Type in all cases: physicochemical
[1] = Adsorption and desorption of water; details: 25° C., different relative humidity
Experimental: The adsorption and desorption of water at 25° C. at different conditions of relative humidity is investigated on an amount of ±10 mg of each salt. The weight change as a function of relative humidity is registered.

[2] = Crystallographic stability (TGA, DSC, IR after storage); details: for crystallographic stability: storage two weeks under different relative humidities; as to IR: key: ~Ref: identical with reference
Experimental: The stability of the crystal structure of the salt is studied after storage of the compounds for a period of two weeks at room temperature (RT) under either 5%, 75% and 25° C./60% relative humidity (RH). The samples are analyzed with thermogravimetry (TGA), differential scanning calorimetry (DSC) and infrared spectroscopy (IR).

[3] = Chemical stability (HPLC and visual inspection after storage); details: for HPLC Sum of impurities: in % (unit assumed); for chemical stability: storage 2, 4 and 8 weeks under different conditions
Experimental: In the chemical stability test program the salts are stored for periods of 2, 4 and 8 weeks under different conditions. These conditions are 40° C./75% RH, 50° C., daylight, RT/5% RH, RT/75% RH, 25° C./60% RH and artificial light. The mandelate salt and the ditoluoyltartrate salt are also stored 8 hours in 0.3 da ICH light. The compounds are analyzed after storage by HPLC and by visual inspection.

[4] = listed as (+)ditoluoyltartrate salt
[5] = 0.3 da ICH light (2 weeks column; text: 8 hours)

Molecule: B-(2α,3aα,12bβ)-11-fluoro-3,3a,8,12b-tetrahydro-N-methyl-2H-dibenzo-[3,4:6,7]cyclohepta[1,2-b]furan-2 methanamine [Citrate]
water adsorption/desorption behaviour (weight change as a function of relative humidity) ([1]; listed as citrate salt): hygroscopic and liquefies at high relative humidity
Appearance ([2]; 0 days): yellowish
DSC Max ([2]; 0 days): amorphous
crystallographic stability ([2]; listed as citrate salt): amorphous and liquefies at RT/75% RH
Appearance ([2]; two weeks, RT/75% RH): liquefied
Appearance ([3]; 40° C./75% RH, 2 weeks): liquefied
HPLC Sum of impurities ([3]; 40° C./75% RH, 2 weeks): 4.83
Appearance ([3]; 40° C./75% RH, 4 weeks): liquefied
HPLC Sum of impurities ([3]; 40° C./75% RH, 4 weeks): 7.91
Appearance ([3]; 40° C./75% RH, 8 weeks): liquefied
HPLC Sum of impurities ([3]; 40° C./75% RH, 8 weeks): 10.62
Appearance ([3]; 50° C., 2 weeks): ochre-
HPLC Sum of impurities ([3]; 50° C., 2 weeks): 6.29
Appearance ([3]; 50° C., 4 weeks): ochre-
HPLC Sum of impurities ([3]; 50° C., 4 weeks): 7.47
Appearance ([3]; 50° C., 8 weeks): orange-
HPLC Sum of impurities ([3]; 50° C., 8 weeks): 9.07
Appearance ([3]; Artificial light (2 weeks)): ochre-
HPLC Sum of impurities ([3]; Artificial light (2 weeks)): 8.99
Appearance ([3]; Daylight, 2 weeks): ochre-
HPLC Sum of impurities ([3]; Daylight, 2 weeks): 5.81
Appearance ([3]; Daylight, 4 weeks): ochre-
HPLC Sum of impurities ([3]; Daylight, 4 weeks): 5.99
Appearance ([3]; Daylight, 8 weeks): orange-
HPLC Sum of impurities ([3]; Daylight, 8 weeks): 6.31
Appearance ([3]; RT/75% RH, 4 weeks): liquefied
HPLC Sum of impurities ([3]; RT/75% RH, 4 weeks): 4.69
Appearance ([3]; RT/75% RH, 8 weeks): liquefied
HPLC Sum of impurities ([3]; RT/75% RH, 8 weeks): 4.98
Appearance ([3]; Reference (2 weeks)): yellow
HPLC Sum of impurities ([3]; Reference (2 weeks)): 4.76
chemical stability ([3]; listed as citrate salt): shows degradation in all investigated conditions; also recorded: chemically not stable

Molecule: CNCC1CC2c3ccccc3Cc3ccc(F)cc3C2O1.O=C(O)CCC(=O)O (single isomer, unassigned) [succinate salt, B-(2α,3aα,12bβ)-11-fluoro-3,3a,8,12b-tetrahydro-N-methyl-2H-dibenzo-[3,4:6,7]cyclohepta[1,2-b]furan-2 methanamine]
water adsorption/desorption behaviour (weight change as a function of relative humidity) [1]: less stable but the weight change as a function of the relative humidity is very small

Appearance ([2]; 0 days): white
DSC Max ([2]; 0 days): 173.7 °C
DSC ΔH ([2]; 0 days): 71.9 J/g
TGA <100° C. ([2]; 0 days): 0.2%
Appearance ([2]; two weeks, 25° C./60% RH): white
DSC Max ([2]; two weeks, 25° C./60% RH): 177.6 °C
DSC ΔH ([2]; two weeks, 25° C./60% RH): 74.7 J/g
IR ([2]; two weeks, 25° C./60% RH): ~Ref
TGA <100° C. ([2]; two weeks, 25° C./60% RH): 0.1%
Appearance ([2]; two weeks, RT/75% RH): white
DSC Max ([2]; two weeks, RT/75% RH): 178.6 °C
DSC ΔH ([2]; two weeks, RT/75% RH): 70.8 J/g
IR ([2]; two weeks, RT/75% RH): ~Ref
TGA <100° C. ([2]; two weeks, RT/75% RH): 0.2%
Appearance ([2]; two weeks, RT/<5% RH): white
DSC Max ([2]; two weeks, RT/<5% RH): 175.6 °C
DSC ΔH ([2]; two weeks, RT/<5% RH): 78.7 J/g
IR ([2]; two weeks, RT/<5% RH): ~Ref
TGA <100° C. ([2]; two weeks, RT/<5% RH): 0.3%
Appearance [3, 5]: white
HPLC Sum of impurities [3, 5]: 1.41
Appearance ([3]; 40° C./75% RH, 2 weeks): white
HPLC Sum of impurities ([3]; 40° C./75% RH, 2 weeks): 0.98
Appearance ([3]; 40° C./75% RH, 4 weeks): white
HPLC Sum of impurities ([3]; 40° C./75% RH, 4 weeks): 1.00
Appearance ([3]; 40° C./75% RH, 8 weeks): white
HPLC Sum of impurities ([3]; 40° C./75% RH, 8 weeks): 1.09
Appearance ([3]; 50° C., 2 weeks): white
HPLC Sum of impurities ([3]; 50° C., 2 weeks): 1.06
Appearance ([3]; 50° C., 4 weeks): white
HPLC Sum of impurities ([3]; 50° C., 4 weeks): 1.22
Appearance ([3]; 50° C., 8 weeks): white
HPLC Sum of impurities ([3]; 50° C., 8 weeks): 1.25
Appearance ([3]; Artificial light (2 weeks)): white
HPLC Sum of impurities ([3]; Artificial light (2 weeks)): 1.57
Appearance ([3]; Daylight, 2 weeks): white
HPLC Sum of impurities ([3]; Daylight, 2 weeks): 1.26
Appearance ([3]; Daylight, 4 weeks): white
HPLC Sum of impurities ([3]; Daylight, 4 weeks): 1.65
Appearance ([3]; Daylight, 8 weeks): white-yellow
HPLC Sum of impurities ([3]; Daylight, 8 weeks): 1.74
Appearance ([3]; Reference (2 weeks)): white
HPLC Sum of impurities ([3]; Reference (2 weeks)): 1.01
Molecule: B-(2α,3aα,12bβ)-11-fluoro-3,3a,8,12b-tetrahydro-N-methyl-2H-dibenzo-[3,4:6,7]cyclohepta[1,2-b]furan-2 methanamine [(+)ditoluoyltartrate]
water adsorption/desorption behaviour (weight change as a function of relative humidity) [1, 4]: less stable but the weight change as a function of the relative humidity is very small; also recorded: good adsorption desorption profile
crystallographic stability [2, 4]: crystallographic stable; also recorded: crystallographically stable
chemical stability [3, 4]: shows a sensitivity towards temperature and light

Appearance ([2]; 0 days): white
DSC Max ([2]; 0 days): 229.5 °C
DSC ΔH ([2]; 0 days): 141.1 J/g
TGA <100° C. ([2]; 0 days): 0.1%
crystallographic stability ([2]; listed as mandelic acid salt): crystallographic stable
Appearance ([2]; two weeks, 25° C./60% RH): white
DSC Max ([2]; two weeks, 25° C./60% RH): 229.1 °C
DSC ΔH ([2]; two weeks, 25° C./60% RH): 139.0 J/g
IR ([2]; two weeks, 25° C./60% RH): ~Ref
TGA <100° C. ([2]; two weeks, 25° C./60% RH): 0.1%
Appearance ([2]; two weeks, RT/75% RH): white
DSC Max ([2]; two weeks, RT/75% RH): 229.4 °C
DSC ΔH ([2]; two weeks, RT/75% RH): 137.6 J/g
IR ([2]; two weeks, RT/75% RH): ~Ref
TGA <100° C. ([2]; two weeks, RT/75% RH): 0.1%
Appearance ([2]; two weeks, RT/<5% RH): white
DSC Max ([2]; two weeks, RT/<5% RH): 229.1 °C
DSC ΔH ([2]; two weeks, RT/<5% RH): 140.2 J/g
IR ([2]; two weeks, RT/<5% RH): ~Ref
TGA <100° C. ([2]; two weeks, RT/<5% RH): 0.1%
Appearance [3, 5]: white
HPLC Sum of impurities [3, 5]: 1.70
Appearance ([3]; 25° C./60% RH, 4 weeks): white
HPLC Sum of impurities ([3]; 25° C./60% RH, 4 weeks): 1.71
Appearance ([3]; 25° C./60% RH, 8 weeks): white
HPLC Sum of impurities ([3]; 25° C./60% RH, 8 weeks): 1.69
Appearance ([3]; 40° C./75% RH, 2 weeks): white
HPLC Sum of impurities ([3]; 40° C./75% RH, 2 weeks): 1.73
Appearance ([3]; 40° C./75% RH, 4 weeks): white
HPLC Sum of impurities ([3]; 40° C./75% RH, 4 weeks): 1.73
Appearance ([3]; 40° C./75% RH, 8 weeks): white
HPLC Sum of impurities ([3]; 40° C./75% RH, 8 weeks): 1.70
Appearance ([3]; 50° C., 2 weeks): white
HPLC Sum of impurities ([3]; 50° C., 2 weeks): 1.74
Appearance ([3]; 50° C., 4 weeks): white
HPLC Sum of impurities ([3]; 50° C., 4 weeks): 1.75
Appearance ([3]; 50° C., 8 weeks): white
HPLC Sum of impurities ([3]; 50° C., 8 weeks): 1.70
Appearance ([3]; Artificial light (2 weeks)): white
HPLC Sum of impurities ([3]; Artificial light (2 weeks)): 1.70
Appearance ([3]; Daylight, 2 weeks): white
HPLC Sum of impurities ([3]; Daylight, 2 weeks): 1.73
Appearance ([3]; Daylight, 4 weeks): white
HPLC Sum of impurities ([3]; Daylight, 4 weeks): 1.71
Appearance ([3]; Daylight, 8 weeks): white
HPLC Sum of impurities ([3]; Daylight, 8 weeks): 1.72
Appearance ([3]; RT/75% RH, 4 weeks): white
HPLC Sum of impurities ([3]; RT/75% RH, 4 weeks): 1.75
Appearance ([3]; RT/75% RH, 8 weeks): white
HPLC Sum of impurities ([3]; RT/75% RH, 8 weeks): 1.76
Appearance ([3]; RT/<5% RH, 4 weeks): white
HPLC Sum of impurities ([3]; RT/<5% RH, 4 weeks): 1.73
Appearance ([3]; RT/<5% RH, 8 weeks): white
HPLC Sum of impurities ([3]; RT/<5% RH, 8 weeks): 1.72
Appearance ([3]; Reference (2 weeks)): white
HPLC Sum of impurities ([3]; Reference (2 weeks)): 1.72
Molecule: CNCC1CC2c3ccccc3Cc3ccc(F)cc3C2O1.O=C(O)C(O)c1ccccc1 (single isomer, unassigned) [Compound 1, B-(2α,3aα,12bβ)-11-fluoro-3,3a,8,12b-tetrahydro-N-methyl-2H-dibenzo-[3,4:6,7]cyclohepta[1,2-b]furan-2 methanamine]
water adsorption/desorption behaviour (weight change as a function of relative humidity) ([1]; listed as mandelate salt): stable towards moisture uptake over the whole range of humidity; also recorded: good adsorption/desorption profile
crystallographic stability ([2]; listed as mandelate salt): crystallographically and chemically stable
chemical stability ([3]; listed as mandelate salt): chemically stable in all investigated conditions; also recorded: crystallographically and chemically stable

Molecule: CNCC1CC2c3ccccc3Cc3ccc(F)cc3C2O1.O=C(O)CC(=O)O (single isomer, unassigned) [malonate salt, B-(2α,3aα,12bβ)-11-fluoro-3,3a,8,12b-tetrahydro-N-methyl-2H-dibenzo-[3,4:6,7]cyclohepta[1,2-b]furan-2 methanamine]
water adsorption/desorption behaviour (weight change as a function of relative humidity) [1]: less stable but the weight change as a function of the relative humidity is very small

Reference: patent US7317115B2, “Mandelates salts of substituted tetracyclic tetrahydrofuran derivatives” (Janssen Pharmaceutica, N.V., priority 2001, dated 2008)
